Where a name gives a salt, the structure may show the parent alone.
Legend:
HFL1 = test: Cell-based assay, anti-proliferative activity (Cell Counting Kit-8, 72 hours); conditions: Homo sapiens; HFL1 cells, Cell Counting Kit-8, 72 hours; read-out: IC50 (μM) HFL1
Experimental: (§1) Active candidate inhibitors against SUV39H2 were evaluated for their target-specific cytotoxicity using A549, HCT-116, HFL1, CCD-18Co and PC14. 100 micro-L of cell suspension was seeded onto 96-well microtiter plate (ViewPlate-96FTC, PerkinElmer). The initial cell concentration of A549, HCT-116, HFL1, CCD-18Co and PC14 were 3,000 cells/well, 2,000 cells/well and 2,500 cells/well, respectively. Cellular growth was determined using Cell Counting Kit-8 (DOJINDO) at 72 hours after the exposure of the candidate inhibitors. IC50 was used as an indicator of the anti-proliferative activity of the inhibitors, and calculated by serial dilution method (0, 1.5625, 3.125, 6.25, 12.5, 25, 50, and 100 micro-M). Accurate IC50 values were calculated as described previously.

HCT-116 = test: as above; conditions: Homo sapiens; HCT-116 cells, Cell Counting Kit-8, 72 hours; read-out: IC50 (μM) HCT-116
Experimental: as §1

CCD-18Co = test: as above; conditions: Homo sapiens; CCD-18Co cells, Cell Counting Kit-8, 72 hours; read-out: IC50 (μM) CCD-18Co
Experimental: as §1

SUV39H2 = SUV39H2 (Homo sapiens (Human), UniProt Q9H5I1); conditions: read-out: IC50 (μM) Suv 39H2 assay; enzyme assay
Chain of SUV39H2 (Q9H5I1 whole entry): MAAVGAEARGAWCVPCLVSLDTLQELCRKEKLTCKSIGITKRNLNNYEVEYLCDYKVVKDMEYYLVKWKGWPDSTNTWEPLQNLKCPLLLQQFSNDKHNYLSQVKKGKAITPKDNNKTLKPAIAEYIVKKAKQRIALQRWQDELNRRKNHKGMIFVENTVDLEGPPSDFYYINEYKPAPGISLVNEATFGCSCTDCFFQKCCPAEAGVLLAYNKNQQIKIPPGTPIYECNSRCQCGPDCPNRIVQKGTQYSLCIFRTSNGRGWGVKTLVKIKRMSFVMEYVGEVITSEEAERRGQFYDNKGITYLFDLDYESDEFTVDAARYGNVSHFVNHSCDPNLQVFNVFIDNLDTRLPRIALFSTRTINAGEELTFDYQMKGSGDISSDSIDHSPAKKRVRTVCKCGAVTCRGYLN

A549 = test: Cell-based assay, anti-proliferative activity (Cell Counting Kit-8, 72 hours); conditions: Homo sapiens; A549 cells, Cell Counting Kit-8, 72 hours; read-out: IC50 (μM) A549
Experimental: 100 micro-L of cell suspension was seeded onto 96-well microtiter plate (ViewPlate-96FTC, PerkinElmer). […] Cellular growth was determined using Cell Counting Kit-8 (DOJINDO) at 72 hours after the exposure of the candidate inhibitors. […] Accurate IC50 values were calculated as described previously.

Row | Structure (SMILES) | IC50 (HFL1) [µM] | IC50 (HCT-116) [µM] | IC50 (CCD-18Co) [µM] | IC50 (SUV39H2) [µM] | IC50 (A549) [µM]
1 | COc1cc(OC)c(-c2cn3ccc(-c4cncc(N)c4)cc3n2)cc1Cl [Example 27, 5-[2-(5-chloro-2,4-dimethoxyphenyl)imidazo[1,2-a]pyridin-7-yl]pyridin-3-amine] | 1.8 | 3.3 | 3.3 | 0.0396 | 1.9
2 | COc1cc(OC)c(-c2cn3ccc(N4CCN(CCNC(=O)OC(C)(C)C)CC4)cc3n2)cc1Cl [Example 28, tert-butyl (2-(4-(2-(5-chloro-2,4-dimethoxyphenyl)imidazo[1,2-a]pyridin-7-yl)piperazin-1-yl)ethyl)carbamate dihydrochloride] | 3.4 | 2.8 | 4 | 0.021 | 3.6
3 | COc1cc(OC)c(-c2cn3ccc(C4=CCN(C(C)=O)CC4)cc3n2)cc1Cl [Example 120, 1-(4-(2-(5-chloro-2,4-dimethoxyphenyl)imidazo[1,2-a]pyridin-7-yl)-5,6-dihydropyridin-1(2H)-yl)ethanone] | 7.6 | 6.6 | 6.8 | 0.0364 | 6.5
4 | COc1cc(OC)c(-c2cn3ccc(N(C)CCNC(=O)OC(C)(C)C)cc3n2)cc1Cl [Example 48, tert-butyl (2-((2-(5-chloro-2,4-dimethoxyphenyl)imidazo[1,2-a]pyridine-7-yl)(methyl)aimno)ethyl)carbamate] | 3.8 | 7.3 | 6.4 | 0.0124 | 8.2
5 | COC(=O)N1CC=C(c2ccn3cc(-c4cc(Cl)c(OC)cc4OC)nc3c2)CC1 [Example 102, methyl 4-[2-(5-chloro-2,4-dimethoxyphenyl)imidazo[1,2-a]pyridin-7-yl]-5,6-dihydropyridine-1(2H)-carboxylate] | 2.3 | 1.9 | 2.8 | 0.0756 | 1.6
6 | COc1cc(OC)c(-c2cn3ccc(N4CC[C@H](NC(=O)OC(C)(C)C)C4)nc3n2)cc1Cl [Example 56, (S)-tert-butyl (1-(2-(5-chloro-2,4-dimethoxyphenyl)imidazo[1,2-a]-pyrimidin-7-yl)pyrrolidin-3-yl)carbamate] | 5.7 | 7 | 7 | 0.0168 | 7.5
7 | COc1cc(OCCCN(C)C)c(-c2cn3ccc(N4CCOCC4)cc3n2)cc1Cl [Example 85, 3-(4-chloro-5-methoxy-2-(7-morpholinoimidazo[1,2-a]pyridin-2-yl)-phenoxy)-N,N-dimethylpropan-1-amine] | 3.5 | 9 | 7.9 | 0.0338 | 8.7
8 | COc1cc(OC2CCCC2)c(-c2cn3ccc(N4CCOCC4)cc3n2)cc1Cl [Example 90, 4-(2-(5-chloro-2-(cyclopentyloxy)-4-methoxyphenyl)imidazo[1,2-a]-pyridin-7-yl)morpholine] | 3.9 | 4.7 | 6 | 0.0584 | 7.1
9 | COc1cc(OC)c(-c2cn3ccc(N)nc3n2)cc1Cl [Example 8, 2-(5-chloro-2,4-dimethoxyphenyl)imidazo[1,2-a]pyrimidin-7-amine] | 21 | 16 | 19 | 0.0182 | 17
10 | COc1cc(OC)c(-c2cn3ccc(C4=CCNCC4)cc3n2)cc1Cl [Example 52, 2-(5-chloro-2,4-dimethoxyphenyl)-7-(1,2,3,6-tetrahydropyridin-4-yl)imidazo[1,2-a]pyridine] | 1.6 | 1.4 | 1.3 | 0.0616 | 1.5
11 | COc1cc(OC)c(-c2cn3cc(C4=CCNCC4)c(N4CCOCC4)cc3n2)cc1Cl [Example 101, 4-(2-(5-chloro-2,4-dimethoxyphenyl)-6-(1,2,3,6-tetrahydropyridin-4-yl)imidazo[1,2-a]pyridin-7-yl)morpholine] | 7.5 | 8.6 | 6.6 | 0.0105 | 8.3
12 | COc1cc(OC)c(-c2cn3ccc(N4CCC(N)CC4)cc3n2)cc1Cl [Example 15, 1-[2-(5-chloro-2,4-dimethoxyphenyl)imidazo[1,2-a]pyridin-7-yl]piperidin-4-amine] | 2.7 | 3.4 | 6.7 | 0.0133 | 3.5
13 | COc1cc(OC)c(-c2cn3ccc(N4CCC(CCN)CC4)nc3n2)cc1Cl [Example 67] | 9.6 | 13 | 13 | 0.0216 | 12
14 | COC(=O)NCCNc1cn2cc(-c3cc(Cl)c(OC)cc3OC)nc2cc1OC [Example 91, methyl (2-((2-(5-chloro-2,4-dimethoxyphenyl)-7-methoxyimidazo[1,2-a]-pyridin-6-yl)amino)ethyl)carbamate] | 2.9 | 2.2 | 4.7 | 0.0263 | 3.1
15 | COc1cc(OC)c(-c2cn3ccc(N4CCC(CNC(=O)OC(C)(C)C)CC4)nc3n2)cc1Cl [Example 32, tert-butyl ((1-(2-(5-chloro-2,4-dimethoxyphenyl)imidazo[1,2-a]pyrimidin-7-yl)piperidin-4-yl)methyl)carbamate] | 4.6 | 8.4 | 6.3 | 0.037 | 6.7
16 | COc1cc(OC)c(-c2cn3ccc(C4=CCOCC4)cc3n2)cc1Cl [Example 118, 2-(5-chloro-2,4-dimethoxyphenyl)-7-(3,6-dihydro-2H-pyran-4-yl)-imidazo[1,2-a]pyridine] | 6.9 | 9.1 | 11 | 0.0661 | 6.9
17 | COc1cc(OC)c(-c2cn3ccc(N4CCC(NC(=O)CCNC(=O)OC(C)(C)C)C4)nc3n2)cc1Br (stereo not shown) [Example 65] | 27 | 17 | 26 | 0.014 | 28
18 | COc1cc(OC)c(-c2cn3ccc(N4CCC(NC(=O)OC(C)(C)C)CC4)nc3n2)cc1Cl [Example 36, tert-butyl (1-(2-(5-chloro-2,4-dimethoxyphenyl)imidazo[1,2-a]pyrimidin-7-yl)piperidin-4-yl)carbamate] | 3.2 | 4.1 | 3.8 | 0.0552 | 5.6
19 | COc1cc(OC)c(-c2cn3ccc(C4=CCN(CC#N)CC4)cc3n2)cc1Cl [Example 111, 2-(4-(2-(5-chloro-2,4-dimethoxyphenyl)imidazo[1,2-a]pyridin-7-yl)-5,6-dihydropyridin-1(2H)-yl)acetonitrile] | 1.9 | 3.5 | 4.8 | 0.0614 | 3.3
20 | COc1cc(OC)c(-c2cn3cc(CCCCN)c(N4CCOCC4)cc3n2)cc1Cl [Example 114, 4-(2-(5-chloro-2,4-dimethoxyphenyl)-7-morpholinoimidazo[1,2-a]pyridin-6-yl)butan-1-amine] | 6.2 | 7.9 | 8.9 | 0.0502 | 8.7

Reference: patent US10508109B2 (priority 2015, dated 2019)
